Laboratory results reported in US20250195523A1, “ORGANIC MOLECULES FOR TREATING MYELIN PATHOLOGIES” (ICM (INSTITUT DU CERVEAU ET DE LA MOELLE ÉPINIÈRE), priority 2022, published 2025).

What was measured:
[1] = system: cerebellar slices explants; experiment: Ex vivo cerebellar organotypic explant culture, differentiation and myelination index; format: cell-based, mice; conditions: 750 nM, three days (7-10 DIV)
Protocol: We prepared cerebellar organotypic cultures from newborn (P0) mice. Cerebellar parasagittal slices (350 μm thick) were cut on a McIlwain tissue chopper and transferred onto 30 mm diameter Millipore culture inserts with […] (Millicell, Millipore). Slices were maintained in incubators at 37° C., under a humidified atmosphere containing 5% CO2 in six-well-plates containing 1 mL of slice culture media. This medium includes basal medium eagle (Invitrogen), 25% complete HBSS, 27 mM D-glucose, 100 U/mL penicillin/streptomycin, 1 mM glutamine (Sigma) and 5% horse serum (New Zealand origin, heat inactivated; Invitrogen). Medium was renewed every 2 days until 7 DIV, reaching the appropriate culture periods to study OPC differentiation and myelination. […] Slices were collected and fixed for 1 h at RT in PBS-4% paraformaldehyde, washed 3 times in PBS, and incubated 20 min at 4° C. in Clark's solution (95% ethanol/5% acetic acid), then washed 3 times in PBS 1×.
For ex-vivo cerebellar slices, slices were incubated 20 min at 4° C. in Clark's solution (95% ethanol/5% acetic acid), then washed 3 times in PBS 1×. Then, sections were incubated for 1 hour in a blocking buffer (0.2% Triton X-100/4% bovine serum albumin/4% donkey serum/PBS). Slices were incubated for 2 hours with the following primary antibodies at RT: Goat anti-Sox10 (1:100, R&D Systems); Rabbit anti-Calbindin (1:1000; Swant); Rat anti-MBP (1:200; Abcam); Mouse anti-CC1 (IgG2b; 1:100, Calbiochem). Then slices were washed 3 times in PBS/0.1% Triton X-100 and incubated in blocking buffer (dark, RT) for 2 hours with appropriate secondary antibodies conjugated with Alexa Fluor 488, 594 and 647 (1:1000; Molecular Probes or Thermo Fisher) and Dapi (1:5000 from working solution at 5 mg/ml; Life Technologies; D1306). Finally, slices were washed 3 times in PBS/0.1% Triton X-100 after incubation and mounted in Fluoromount-G (SouthernBiotech).
Then, we firstly performed a simpler and faster experimental model using cerebellar slices explants to identify the best drugs having pro-oligodendrogenenic and pro-myelinating activities in this ex vivo model, to be used in the in vivo analyses. Indeed, this model allowed us to better assess later aspects of OL maturation, myelination, and cytotoxicity in a richer cellular system, also containing immune cells (microglia/macrophages) that are known to influence oligodendrogenesis and (re) myelination. In this model, the start of myelination takes place after 7 days in culture (FIG. 3A). […] We then analyzed the effect in terms of OL numbers (CC1+/Sox10+ cells) and myelination (MBP labeling on CaBP+ Purkinje cell axons), by immunodetection of all four markers in the same sections. We calculated the differentiation index as the ratio of Sox10+ cells being CC1+, and the myelination index as the ratio CaBP+ axons being MBP+. […] On the one hand, we used the adult focal de/remyelination induced by intracerebral injection of […] (LPC) mimicking de/remyelination of MS, and on the other hand, the neonatal chronic hypoxia model, mimicking PTB hypomyelination.

[2] = system: focal demyelination in the corpus callosum of adult mice; experiment: Lysolecithin (LPC) induced focal de/remyelination model in adult mice, oral administration in drinking water; format: in vivo; conditions: 7 dpl, oral daily
Protocol: We weighted and anesthetized 4 months old RjOrl: SWISS mice (Janvier) with isoflurane (induced at 3%, and maintained at 1.2-1.6%). We induced focal demyelinating lesions by injecting 0.5 μl of a solution of 1% lysolecithin (LPC, Sigma in 0.9% NaCl solution) into the corpus callosum. To do so, a glass-capillary connected to a 10 μl Hamilton syringe was fixed and oriented through stereotaxic apparatus (coordinates: 1 mm lateral, 1.3 mm rostral to Bregma, 1.7 mm deep to brain surface). Animals were left to recover for a few hours in a warm chamber. […] Mice was perfused at 2% cold paraformaldehyde (thermos fisher) at 7 DPI.
For in-vivo cryosections (14-μm thick) of lesions, immunohistochemistry was performed after 30 mn drying at RT in a moist chamber. For myelin staining, ethanol treatment (100%) was performed for 10 mn at RT. Briefly, sections were permeabilized and blocked in a blocking buffer for 1 h (0.05% Triton X-100/10% normal goat serum/PBS). Then, cryosections were incubated overnight with the following primary antibodies at 4° C.: Mouse anti-APC (CC1 IgG2B; 1:100, calbiochem); Rabbit anti-Olig2 (1:500; Millipore); Mouse anti-Olig1 (IgG1; 1:500; NeuroMab); Rat anti-CD68 (1:500, AbD SEROTEC/BioRad); Rabbit anti-IBA1 (1:500, Wako Fujifilm); Mouse anti-MOOG (mlgG1, 1:20; Hybridoma). Then sections were washed 3 times in 0.05% Triton X-100/PBS and incubated 1 hour at RT with appropriate secondary antibodies conjugated with Alexa Fluor 488, 594 and 647 (1:1000; Molecular Probes or Thermo Fisher) and Dapi (1:5000 from working solution at 5 mg/ml; Life Technologies; D1306). Sections were washed 3 times in 0.05% Triton X-100/PBS and mounted with Fluoromount-G (SouthernBiotech).
We analyzed the lesions at 7 days post-lesion (7 dpl), when newly formed OLs have started to remyelinate the lesion in this model. The lesion area was identified by immunodetection of the high cellular density with DAPI staining, reduction of myelin with myelin oligodendrocyte glycoprotein (MOG), and abundance of microglia/macrophages with Iba1 and Cd68. We determined the effect of the drugs to promote oligodendrogenesis at the lesion site by combinatory immunodetection of Olig2, CC1 and Olig1, allowing to distinguish OPCs (Olig2^high/CC1^−/Olig1^nuclear-cyto cells) and three stages in OL differentiation: iOL1 (Olig2^high/CC1^high/Olig1^− cells), iOL2 (Olig2^high/CC1^high/Olig1^high-cyto cells), and mOL (Olig2^low/CC1^low/Olig1^low cells). […] Given the increase in OL differentiation by the drugs administration, without diminishing the pool of OPCs in the lesion area, we assessed for the proliferative status of OPCs, using Mcm2 and Ki67 proliferative markers, finding that both drugs promote a ˜2-fold increase in the density of proliferative OPCs (FIG. 4D) and in the proportion of proliferative OPCs (FIG. 4E).
To investigate the possible anti-inflammatory and pro-regenerative activity of these drugs, we performed staining for microglia/macrophages (Iba1+ cells), their active phagocytic status (Cd68+ cells), together with myelin (MOG) and cell density (DAPI) to identify the lesion area.

## CCCCOc1ccc(C(=O)CCN2CCCCC2)cc1.Cl [Sm5, Dyclonine hydrochloride]
[1]; compared to negative controls, FIG. 3B
  differentiation index (CC1+/Sox10+ OLs number): increased differentiation index
[1]; compared to vehicle, FIG. 3C
  myelination process (MBP+/CaBP+), myelination index: robust increase
[2]; sm5 at 5 μg per g, control 942.5±265.7, FIG. 4B
  number of oligodendroglial cells in the remyelinating area (Olig2+ cells): 1208±281.1 Olig2+ cells per mm^2
[2]; FIG. 4C
  density of OPCs (Olig2high/CC1−/Olig1nuclear-cyto cells) in the lesion area: did not change
[2]; FIG. 4F
  increase of the differentiation ratio (number of OLs per OPC) versus control: 2 fold
[2]; FIG. 4I
  pro-regenerative microglia (Arg1+ cells): corresponding increase
[2]; control 22.45%, FIG. 4H
  actively phagocytic microglia/macrophages (Cd68+ cells): reduction of their phagocytic population
[2]; control 25% (1 OLs for 4 OPCs), FIG. 4F
  differentiation ratio (number of OLs per OPC): 50%
[2]; control 33.64%, FIG. 4G
  surface occupied by Iba1+ microglia/macrophages in the lesion area: trend to reduce
[2]; versus control
  increase of each stage of OL differentiation (iOL1, iOL2 & mOL): more moderate effect only significant at the iOL2 stage
[2]; versus control, FIG. 4D
  increase in the density of proliferative OPCs (Mcm2, Ki67 markers): ~2 fold
[2]; versus control, FIG. 4E
  increase in the proportion of proliferative OPCs: ~2 fold
